Source: patent US4033721A, “Analysis of gentian violet residue in tissue” (priority 1976, dated 1977)
“And” between values parts separate entries of the source, which are not always exact repeats. Identical values can stand only once. Like-named read-outs stand apart in the source and are kept apart here.

Legend:
[1] = Spectrophotometric determination of gentian violet residue in livers of chickens fed gentian violet (Examples 2 to 24); assay type: in vivo
Method: This example involves the spectrophotometrical determination of the gentian violet content (as a residue) of poultry tissue.
An acid alcohol solution was prepared by adding 20 ml of concentrated hydrochloric acid to 2,000 ml of 95 percent ethyl alcohol (denatured).
A gentian violet stock solution was prepared as follows: Using the Ainsworth chainomatic analytical balance, 0.104 gm of crystalline gentian violet (USP) was accurately weighed out and quantitatively transferred to a 1000 ml volumetric flask and q.s. to 1000 ml with distilled water. A magnetic stirring bar was inserted into the flask and the gentian violet solution was mixed on a magnetic mixer for 1 hour. This solution contained 100 ug of gentian violet per ml (100 ppm).
Gentian violet-acid alcohol standard solutions were prepared as follows: Five standard dilutions of gentian violet in acid alcohol were prepared and the absorbence (O.D.) for each dilution was determined. The absorbence of the 5 dilutions were plotted on a graph to determine the linearity of the gentian violet curve.
The spectrophotometer was set at 590 mμ and zeroed using an acid alcohol blank. The absorbence of the 5 standard dilutions in the 13 mm cuvette was determined. The O.D. of the 1 ppm dilution in the 13 mm cuvette was recorded for use in calculation of the gentian violet recovery. (If method sensitivity below 0.1 ppm is desired, the O.D. of the 1 ppm standard in the 100 mm cell is recorded and the Beckman D.U. is used to make the determinations.)
A sodium hypochlorite quenching solution was prepared as follows: 0.26 gm. of sodium hypochlorite was weighed into a 250 ml Erlenmeyer flask and q.s. to 100 ml with distilled water. This solution was 0.26 percent NaOCL. If sodium hypochlorite is not available in the laboratory, this solution can be made from any standard household bleaching solution containing sodium hypochlorite (i.e., Clorox) at the 5.25 percent concentration. 1 ml 5.25 percent NaOCL q.s. to 20 ml with distilled water to give 20 ml of 0.26 percent NaOCL.
The tissue samples were prepared by grinding the tissues in a Waring-type blender to reduce the tissues to the smallest particle size possible. Using a Mettler P162-type balance, 5 gm samples of the finely ground tissues were weighed (in triplicate) into Erlenmeyer flasks.
Gentian violet was extracted from tissue samples as follows: 50 ml of acid-alcohol were added (using a graduated glass cylinder) to each of the samples in the flasks. A 3/4" magnetic stirring bar was inserted into each sample. The flasks were stoppered. The samples were placed on the magnetic mixers and mixed for 1 hour. After mixing, the samples were set in the dark to digest for 12 hours (overnight). After 12 hours of digestion the samples were again placed on the magnetic mixer and mixed for 1 hour. The contents of the sample flasks were poured into 60 ml glass centrifuge tubes and centrifuged at 2400 rpm for 10 minutes.
Chromatographic column clearing of the centrifuged samples was achieved as follows: Each column was equipped with a glass stop-cock, if the column was not so equipped. A small glass-wool pledget was inserted firmly in the bottom of the column to fill the bottom curve of the column. 5 to 6 grams of the Alumin AR sorbent was added to each column. The supernatant liquid was carefully decanted from the centrifuge tube into the chromatographic column. A 50 ml beaker was placed under each column. The stop-cock was opened and the first eluant from the column was collected until a minimum of 20 ml was collected. (This first eluant ordinarily was yellow in color but contained the extracted gentian violet.)
Spectrophotometric determination of the gentian violet concentration from the tissue sample was determined as follows: 5 ml of each of the eluants was pipetted into the 13 mm cuvettes. The spectrophotometer was set at 590 mu. The spectrophotometer was zeroed using an acid alcohol blank in the 13 mm cuvette. It was established that all cuvettes were matched. […]

[2] = Stability of gentian violet (light, acid, digestive tract pH); assay type: physicochemical
[3] = cited from earlier work
[4] = Residual 14C-gentian violet in tissues of cockerels after repeated oral administration (Example 26)
normal coliform bacteria = conditions: intestinal tract; cited from earlier work
[5] = cited from earlier work; remark: listed apart in the source
[6] = cited from earlier work; remark: listed apart in the source
[7] = water, chloroform and ethanol; cited from earlier work
Candida albicans = conditions: cited from earlier work
[8] = cited from earlier work; remark: listed apart in the source
[9] = 4 hours after last administration

Compound: CN(C)c1ccc(C(=C2C=CC(=[N+](C)C)C=C2)c2ccc(N(C)C)cc2)cc1 [gentian violet, hexamethylpararosaniline chloride]
- gentian violet residue with time after last intake of feed ([1]; chicken liver): lower with time
- p.p.m. of Gentian Violet in liver ([1]; chicken liver, feed 7 ppm for 56 days, 4 hours after final dose, 240 min): 0.28 p.p.m.
- p.p.m. of Gentian Violet in liver ([1]; chicken liver, feed 7 ppm for 56 days, 24 hours after final dose, 1440 min): 0.20 p.p.m.
- p.p.m. of Gentian Violet in liver ([1]; chicken liver, feed 7 ppm for 56 days, 48 hours after final dose, 2880 min): 0.08 p.p.m. and 0.16 p.p.m.
- p.p.m. of Gentian Violet in liver ([1]; chicken liver, feed 35 ppm for 56 days, 12 hours after final dose): 0.44 p.p.m.
- p.p.m. of Gentian Violet in liver ([1]; chicken liver, feed 35 ppm for 56 days, 24 hours after final dose, 1440 min): 0.80 p.p.m. and 0.60 p.p.m.
- concentration at 4 h ([1]; chicken, liver, po, feed 7 ppm for 56 days, 4 hours after final dose, read-out: p.p.m. of Gentian Violet in liver): 240 ng/g
- concentration at 12 h ([1]; chicken, liver, po, feed 7 ppm for 56 days, 12 hours after final dose, read-out: p.p.m. of Gentian Violet in liver): 120 ng/g
- concentration at 48 h ([1]; chicken, liver, po, feed 7 ppm for 56 days, 48 hours after final dose, read-out: p.p.m. of Gentian Violet in liver): 80 ng/g
- concentration at 12 h ([1]; chicken, liver, po, feed 35 ppm for 56 days, 12 hours after final dose, read-out: p.p.m. of Gentian Violet in liver): 440 ng/g
- concentration at 24 h ([1]; chicken, liver, po, feed 35 ppm for 56 days, 24 hours after final dose, read-out: p.p.m. of Gentian Violet in liver): 640 ng/g
- concentration at 48 h ([1]; chicken, liver, po, feed 35 ppm for 56 days, 48 hours after final dose, read-out: p.p.m. of Gentian Violet in liver): 360 ng/g
- acid stability ([2]; acid ethanol extract, pH lowered by evaporation): the acid would destroy the extracted gentian violet
- light stability ([2]; ultra violet rays of sunlight): extremely sensitive to decomposition
- absorption ([3]; digestive tract of animals and poultry): essentially non-absorbable
- residue in tissue of animals fed the compositions ([3]; in vivo): little or no residue
- radioactivity in 5X kidneys relative to 1X kidneys [4, 9]: 4.7 times
- radioactivity in 5X livers relative to 1X livers [4, 9]: 2.7 times
- concentration by the liver relative to the kidneys ([4]; in vivo): about twice as much
- disappearance from one organ versus the other ([4]; livers and kidneys): does not disappear more rapidly from one organ than the other
- mean half-life in the two organs at dose levels ([4]; livers and kidneys, 5X and 1X): 32.2 h
- effect on growth and activity of normal coliform bacteria (normal coliform bacteria): without materially reducing the growth of and activity of the normal coliform bacteria
- biodegradability ([5]; contaminant in water and residue in poultry manure, ultra-violet rays of sunlight): biodegradable
- stability in the digestive tract pH range ([5]; pH range of the digestive tract of animals and poultry): stable
- growth on mycotoxin-contaminated feed ([6]; feed containing gentian violet at the claimed levels): increased at a rate significantly faster
- growth promotion ([6]; feed contaminated with aflatoxin): works as a growth promoter
- sparing effect versus aflatoxin concentration ([6]; in vivo): appears to be a linear function of the concentration of the aflatoxin in the feed
- solubility [7]: soluble in water, chloroform and ethanol
- effect on Candida albicans (Candida albicans): inhibits the growth of and destroys Candida albicans
- toxic effects in poultry ([8]; in vivo): can kill the poultry or cause a decrease in the weight gain of the poultry
- toxicity of residue levels to the consuming animal or poultry ([8]; levels given in U.S. Pat. No. 3,916,027): not toxic or harmful
